Test results reported in patent US11384071B2, “Inhibitors of mechanotransduction to treat pain and modulate touch perception” (Max-Delbrück-Centrum für Molekulare Medizin in der …, priority 2016, dated 2022).

How the values were obtained:
[1] = test system: dissociated mouse DRG neurons; assay: Action potential properties and electrical excitability of dissociated DRG neurons; assay type: cell-based
Method: Whole-cell, patch-clamp recordings were conducted as previously described 5-7, using patch pipettes with a tip resistance of 3-6 MΩ, filled with a solution of: 110 mM KCl, 10 mM NaCl, 1 mM MgCl2, 1 mM EGTA and 10 mM HEPES, adjusted to pH 7.3 with KOH. (For experiments on DRG neurons 10 mM QX-314 was added to the pipette to block voltage-gated sodium channels 8 Extracellular solutions contained 140 mM NaCl, 4 mM KCl, 2 mM CaCl2, 1 mM MgCl2, 4 mM glucose, 10 mM HEPES, adjusted to pH 7.4 with NaOH. A Zeiss 200 inverted microscope and an EPC-10 amplifier in combination with Patchmaster software was used, data was analyzed using Fitmaster software (HEKA Electronik GmbH, Germany). Pipette and membrane capacitance were compensated using the auto function of Patchmaster, series resistance was compensated by at least 60% to minimize voltage errors. Mechanical stimuli were applied using a polished glass probe driven by the MM3A micromanipulator (Kleindiek Nanotechnik, Germany). Mechanical stimuli were applied by either; indenting the cell soma or by culturing cells on elastomeric pillar arrays and applying the stimulus to the cell-substrate interface by deflecting an individual pilus.
Briefly, elastomeric pillar arrays of defined dimensions were cast in PDMS with an elasticity of 2 MPa. Cells cultured on these arrays were monitored using whole-cell patch-clamp whilst a glass probe was used to apply repeated deflections (of differing magnitudes) to an individual pilus directly beneath the cell. Images were obtained of the pilus before and after deflection and images were analyzed off-line to determine the exact deflection for each data point. Images were obtained using a 40×LD objective and a CoolSNAP EZ CCD camera. Images were analyzed off-line using Igor software (WaveMetrics, USA). The collection of stimulus-response data using pillar arrays generates data sets with variation in both x and y. In order to effectively compare groups for each cell studied we binned response data by stimulus size in the following bins: 0-10, 10-50, 50-100, 100-250, 250-500, 500-1000. For each cell, current amplitudes within each bin were averaged and then bins averaged between cells—we then tested for significance by testing whether the current amplitude for a given stimulation range (i.e. bin) differed between samples. A power analysis was used to determine that moderate to strong effects between samples could be detected with a sample size >4. […] To distinguish mechanoreceptors from nociceptors in the mixed population of acutely prepared DRG neurons, the shape of the generated action potential (AP) was used. […] For quantitative analysis of mechanosensitivity we measured responses in the most sensitive sub-population of mechanoreceptors, previously defined as Typell mechanoreceptors (Poole et al., 2014).
We evaluated the effects of OB-1 and OB-2 on mechanosensitive currents in acutely cultured mouse sensory neurons. Neurons were classified on the basis of their AP configuration as mechanoreceptors or nociceptors^2,21.

STOML2 = target: T1, STOML2 (Mus musculus, UniProt Q99JB2); assay: BiFC assay of STOML2 self-association; assay type: cell-based
T1 construct: expressed in transfected cells; host or cells: HEK293 (general statement on the BiFC assay)
Method: FIG. 8: Effects of STOML3 modulating molecules on other Stomatin-domain proteins. (a) BiFC signal development observed when cells were transfected with Stomatin-VC/-VN, STOML1-VC/-VN, STOML2-VC/-VN, STOML3-VC/-VN or Podocin-VC/-VN expression constructs respectively. […] (b) OB-1 was tested at two different concentrations (2 μm and 20 μm) using the BiFC assay where wild type STOML3 was used as both bait and prey.
In mammals STOML3 belongs to a family of five structurally conserved membrane proteins, including stomatin, STOML1, STOML2, and podocin^10,12-16, all of which self-associate via their stomatin-domain (FIG. 8a)^10. Self-association of stomatin-domain proteins can be monitored in HEK293 cells using Bimolecular Fluorescence Complementation (BiFC) whereby N- and C-terminal halves of the YFP molecule are tagged to the prey and bait protein STOML3^2,17 (FIG. 1a). Irreversible association of the YFP fragments produces fluorescence that increases linearly over time (FIG. 1b).

NGF-injected mice = assay: NGF-induced hyperalgesia; assay type: in vivo, mouse
Text: (§1) Mice were allowed to habituate to the testing apparatus (acrylic chambers 10×10 cm in size, suspended above a wired mesh grid) one hour prior to behavioral testing. Only once the subject was at rest and not moving, calibrated von-Frey hair monofilaments (Aesthesio® set of 20 monofilaments, Ugo Basil) were applied to the plantar surface of the hind paw in order to deliver target forces from 0.008 grams to 4 grams increasing in an approximately logarithmic scale. A single stimulus indicated by a slight bending of the filament lasted for two seconds unless the mouse withdrew its paw. In order to measure mechanosensitivity the up-and-down method described by Chaplan^13 was adapted as follows: Testing began with a filament delivering a target force of 0.4 g, but filaments were applied three times. A positive response was noted if the subject withdrew the paw to all three filament applications, so that the successively smaller filament was presented next. […] Paw withdrawal thresholds were calculated as median of 23 to 30 determined turning points of the particular force stimuli applied to the subject.

naive mice = assay: Paw withdrawal threshold and radiant heat latency in naive mice; assay type: in vivo, mouse; details: intraplantar 250-500 pmol per paw
Text: as §1
Drug injections of OB-1 or DMSO alone were dissolved in Ringer's solution (in mM: 135 NaCl, 5 KCl, 5 HEPES, 1.8 CaCl2), 1 MgCl2) to make the OB-1 and vehicle solution. […]

hsSTOML3 = target: T2, hsSTOML3 (Homo sapiens, UniProt Q8TAV4); assay: TriGFP assay of hsSTOML3 self-association in N2a cells, flow cytometry; assay type: cell-based; details: 20 μM, 16 h, vs vehicle
T2 construct: expressed in transfected cells; host or cells: N2a
T2 sequence (Q8TAV4 whole entry): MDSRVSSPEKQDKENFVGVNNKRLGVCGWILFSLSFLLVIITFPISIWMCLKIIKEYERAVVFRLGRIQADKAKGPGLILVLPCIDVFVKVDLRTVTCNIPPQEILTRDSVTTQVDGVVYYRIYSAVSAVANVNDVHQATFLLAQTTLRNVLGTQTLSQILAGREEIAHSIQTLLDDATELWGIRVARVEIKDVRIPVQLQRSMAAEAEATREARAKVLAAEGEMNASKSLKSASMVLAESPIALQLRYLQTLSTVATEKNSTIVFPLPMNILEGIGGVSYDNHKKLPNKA
Method: (a) The assay is based on the tripartite association between the two twenty amino-acids long GFP tags GFP10 and GFP11, which were fused to hsSTOML3 protein partners, and the complementary GFP1-9 detector (Reference 50). When hsSTOML3 proteins interact, GFP10 and GFP11 self-associate with GFP1-9 and reconstitute functional GFP.
N2a cells were cultured in 6-well plates to approximately 70% confluence; cells were co-transfected with plasmids encoding GFP1-9, STOML3-GFP10 and STOML3-GFP11 using PEI, as per manufacturer's instructions. The transfection reaction was allowed to proceed for 8 h before compound incubation at 20 μM final concentration. Twenty-four hours after transfection cells were collected, fixed with 4% PFA for 10 minutes and resuspended in PBS. Cell suspensions were used for flow cytometry analysis.
In this assay, N2a cells were co-transfected with plasmids encoding GFP1-9, STOML3-GFP10 and STOML3-GFP11 and incubated with either vehicle (0.4% DMSO) or OB-1 derivatives at 20 μM final concentration for 16 h. Twenty-four hours after transfection cells were collected, fixed with 4% PFA and resuspended in PBS.

T1 sequence (Q99JB2 29-353): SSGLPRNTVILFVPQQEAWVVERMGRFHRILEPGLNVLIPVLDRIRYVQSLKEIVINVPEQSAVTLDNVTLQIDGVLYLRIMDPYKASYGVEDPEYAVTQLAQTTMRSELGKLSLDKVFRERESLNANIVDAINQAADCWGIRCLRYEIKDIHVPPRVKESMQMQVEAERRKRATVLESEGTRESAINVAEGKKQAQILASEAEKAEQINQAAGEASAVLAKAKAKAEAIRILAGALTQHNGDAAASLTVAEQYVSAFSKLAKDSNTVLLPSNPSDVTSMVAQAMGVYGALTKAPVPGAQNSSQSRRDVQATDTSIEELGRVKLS

## CCOC(=O)c1c(-c2ccccc2)oc2ccc(Oc3c([N+](=O)[O-])ncn3C)cc12 [OB-1, Ethyl 5-((1-methyl-4-nitro-1H-imidazol-5-yl)oxy)-2-phenylbenzofuran-3-carboxylate]
[1]; Mechanoreceptors (n = 9)
  AHP (after-hyperpolarization potential): −62.3 ± 1.6 mV
  APamp (action potential amplitude): 97.8 ± 4.9 mV
  APtime (total duration of action potential): 11.90 ± 2.9 ms
  Input R: 40.8 ± 6.7 MΩ
  Threshold: 700.0 ± 305.9 pA
  Tpeak (Time to action potential peak): 7.5 ± 2.0 ms
  Trep (Time to repolarizing peak): 4.5 ± 1.7 ms
  Vrest (Resting potential): −56.6 ± 2.0 mV
[1]; Nociceptors (n = 12)
  AHP (after-hyperpolarization potential): −67.4 ± 1.3 mV
  APamp (action potential amplitude): 115.4 ± 4.0 mV
  APtime (total duration of action potential): 10.0 ± 1.5 ms
  Input R: 56.7 ± 5.2 MΩ
  Threshold: 1276.4 ± 256.0 pA
  Tpeak (Time to action potential peak): 5.0 ± 0.7 ms
  Trep (Time to repolarizing peak): 5.0 ± 1.1 ms
  Vrest (Resting potential): −59.5 ± 1.2 mV
[1]; treated at least 3 h with 20 μM
  parameters indicative of electrical excitability: no alteration
STOML2
  self-association of STOML2 (BiFC): effective inhibitor
NGF-injected mice; local intraplantar
  mechanical hypersensitivity after NGF: not reversed
NGF-injected mice; local treatment, systemic NGF-injection
  NGF-induced thermal hyperalgesia: not alleviate
Naive mice
  paw withdrawal thresholds to mechanical stimuli: no change
  withdrawal latency for radiant heat stimuli: no change
hsSTOML3
  hsSTOML3 self-association (GFP signal intensity): strongly reduce
